In paper PMC9505425, “Targeting of the Mitochondrial TET1 Protein by Pyrrolo[3,2-b]pyrrole Chelators” (International Journal of Molecular Sciences, 2022):
Values joined by “and” are separate entries in the source; they are usually repeats but may differ in a detail not shown here. Identical values can stand only once.

Columns and labels:
Format in all cases: cell-based, human
H-1299 cells = assay: MTT cytotoxicity assay, H-1299; details: for Cell viability % / IC50: 48 h; for IC50: NCI-H1299, MTT
In short: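 Cells seeded at 1.0 × 10^5/well, grown 24 h, then exposed 48 h to compounds at 0.1–20 μM (≤1% DMSO); U118-MG in DMEM, H1299 in RPMI 1640, both with 10% FBS, 37 °C. MTT 2 h, formazan in DMSO read at 570 nm; IC50 relative to untreated cells (100%).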

Caov-3 cells = assay: MTT cytotoxicity assay, Caov-3; details: for Cell viability % / IC50: 48 h; for IC50: Caov-3, MTT
In short: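 Caov-3 ovarian adenocarcinoma cells, grown for 24 h after plating, were exposed for 48 h to compound at 0.1–20 μM with at most 1% DMSO. Viability was measured by MTT reduction (2 h, A570) relative to untreated cells. IC50 was the concentration inhibiting 50% of cell growth.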

HF-P4 cells = assay: MTT cytotoxicity assay, HF-P4; details: 48 h; for Cell viability %: repeats; for IC50: Homo sapiens, MTT
In short: (§1)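 Cells seeded at 1.0 × 10^5 per well, grown 24 h, then exposed 48 h to compounds at 0.1–20 μM (DMSO ≤1%). MTT added for 2 h, formazan dissolved in DMSO, absorbance read at 570 nm. IC50 calculated relative to untreated cells (100%).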

[1] = MTT cytotoxicity assay, HF-P4; details: human, HF-P4 normal human dermal fibroblasts, repeats, read-out: Cell viability %; for viability at 48 h, 0.5 µM: HF-P4, 500 nM; for viability at 48 h, 0.75 µM: HF-P4, 750 nM; for viability at 48 h, 1 µM: HF-P4, 1 uM; for viability at 48 h, 2.5 µM: HF-P4, 2.5 uM; for viability at 48 h, 5 µM: HF-P4, 5 uM; for viability at 48 h, 7.5 µM: HF-P4, 7.5 uM; for viability at 48 h, 10 µM: HF-P4, 10 uM; for viability at 48 h, 15 µM: HF-P4, 15 uM; for viability at 48 h, 20 µM: HF-P4, 20 uM
In short: as §1

[2] = H-1299, 100 nM, repeats, 0.1 µM
[3] = H-1299, 500 nM, repeats, 0.5 µM
[4] = H-1299, 750 nM, repeats, 0.75 µM
[5] = H-1299, 2.5 uM, repeats, 2.5 µM
[6] = H-1299, 7.5 uM, repeats, 7.5 µM
[7] = Homo sapiens, NCI-H1299, 48 h, H-1299, 100 nM, repeats, read-out: Cell viability %
[8] = Homo sapiens, NCI-H1299, 48 h, H-1299, 7.5 uM, repeats, read-out: Cell viability %
[9] = Homo sapiens, NCI-H1299, 48 h, H-1299, 10 uM, repeats, read-out: Cell viability %
[10] = Homo sapiens, NCI-H1299, 48 h, H-1299, 15 uM, repeats, read-out: Cell viability %
[11] = Homo sapiens, NCI-H1299, 48 h, H-1299, 20 uM, repeats, read-out: Cell viability %
[12] = Caov-3, 100 nM, repeats, 0.1 µM
[13] = Caov-3, 500 nM, repeats, 0.5 µM
[14] = Caov-3, 750 nM, repeats, 0.75 µM
[15] = Caov-3, 2.5 uM, repeats, 2.5 µM
[16] = Caov-3, 7.5 uM, repeats, 7.5 µM
[17] = Homo sapiens, Caov-3, 48 h, Caov-3, 750 nM, repeats, read-out: Cell viability %
[18] = Homo sapiens, Caov-3, 48 h, Caov-3, 15 uM, repeats, read-out: Cell viability %
[19] = Homo sapiens, Caov-3, 48 h, Caov-3, 20 uM, repeats, read-out: Cell viability %

## Cc1ccc(-n2c(-c3ccc(C(=O)NN)cc3)cc3c2cc(-c2ccc(C(=O)NN)cc2)n3-c2ccc(C)cc2)cc1 [Compound 1]
H-1299 cells; [2]
  Cell viability %: 74.42% and 77.2%
H-1299 cells; [3]
  Cell viability %: 114.5756% and 80.35% and 108.7959%
H-1299 cells; [4]
  Cell viability %: 97.3% and 84.13% and 122.0664%
H-1299 cells; H-1299, 1 uM, repeats, 1 µM
  Cell viability %: 81.23% and 63.3%
H-1299 cells; [5]
  Cell viability %: 76.07% and 72.39%
H-1299 cells; H-1299, 5 uM, repeats, 5 µM
  Cell viability %: 61.74% and 69.23%
H-1299 cells; [6]
  Cell viability %: 36.84% and 36.67%
H-1299 cells; H-1299, 10 uM, repeats, 10 µM
  Cell viability %: 36.64% and 31.8986%
H-1299 cells; H-1299, 15 uM, repeats, 15 µM
  Cell viability %: 23.04% and 23.96%
H-1299 cells; H-1299, 20 uM, repeats, 20 µM
  Cell viability %: 17.01% and 14.68%
H-1299 cells; [7]
  viability at 0.1 µM: 86.7%
H-1299 cells; Homo sapiens, NCI-H1299, 48 h, H-1299, 1 uM, repeats, read-out: Cell viability %
  viability at 1 µM: 69.9%
H-1299 cells; Homo sapiens, NCI-H1299, 48 h, H-1299, 2.5 uM, repeats, read-out: Cell viability %
  viability at 2.5 µM: 68%
H-1299 cells; Homo sapiens, NCI-H1299, 48 h, H-1299, 5 uM, repeats, read-out: Cell viability %
  viability at 5 µM: 57.7%
H-1299 cells; [8]
  viability at 7.5 µM: 38.4%
H-1299 cells; [9]
  viability at 10 µM: 35.2%
H-1299 cells; [10]
  viability at 15 µM: 23.9%
H-1299 cells; [11]
  viability at 20 µM: 19.2%
H-1299 cells; Homo sapiens
  IC50: 6.89 µM
Caov-3 cells; [12]
  Cell viability %: 80.61% and 94.8%
Caov-3 cells; [13]
  Cell viability %: 91.36% and 100.9421% and 76.35%
Caov-3 cells; [14]
  Cell viability %: 95.41% and 77.67%
Caov-3 cells; Caov-3, 1 uM, repeats, 1 µM
  Cell viability %: 71.07% and 89.66%
Caov-3 cells; [15]
  Cell viability %: 71.79% and 55.75%
Caov-3 cells; Caov-3, 5 uM, repeats, 5 µM
  Cell viability %: 48.77% and 58.08%
Caov-3 cells; [16]
  Cell viability %: 51.68% and 65.52%
Caov-3 cells; Caov-3, 10 uM, repeats, 10 µM
  Cell viability %: 53.56% and 43.67%
Caov-3 cells; Caov-3, 15 uM, repeats, 15 µM
  Cell viability %: 35.1% and 41.9%
Caov-3 cells; Caov-3, 20 uM, repeats, 20 µM
  Cell viability %: 35.73% and 39.69%
Caov-3 cells; Homo sapiens, Caov-3, 48 h, Caov-3, 100 nM, repeats, read-out: Cell viability %
  viability at 0.1 µM: 97.9%
Caov-3 cells; [17]
  viability at 0.75 µM: 78.5%
Caov-3 cells; Homo sapiens, Caov-3, 48 h, Caov-3, 1 uM, repeats, read-out: Cell viability %
  viability at 1 µM: 81.2%
Caov-3 cells; Homo sapiens, Caov-3, 48 h, Caov-3, 2.5 uM, repeats, read-out: Cell viability %
  viability at 2.5 µM: 55.9%
Caov-3 cells; Homo sapiens, Caov-3, 48 h, Caov-3, 5 uM, repeats, read-out: Cell viability %
  viability at 5 µM: 50.9%
Caov-3 cells; Homo sapiens, Caov-3, 48 h, Caov-3, 7.5 uM, repeats, read-out: Cell viability %
  viability at 7.5 µM: 56.4%
Caov-3 cells; Homo sapiens, Caov-3, 48 h, Caov-3, 10 uM, repeats, read-out: Cell viability %
  viability at 10 µM: 45.1%
Caov-3 cells; [18]
  viability at 15 µM: 45.9%
Caov-3 cells; [19]
  viability at 20 µM: 28.5%
Caov-3 cells; Homo sapiens
  IC50: 6.48 µM
HF-P4 cells; HF-P4, 100 nM, 0.1 µM
  Cell viability %: 110.5137% and 108.5444%
HF-P4 cells; HF-P4, 500 nM, 0.5 µM
  Cell viability %: 109.6499% and 91.3%
HF-P4 cells; HF-P4, 750 nM, 0.75 µM
  Cell viability %: 108.0378% and 98.14%
HF-P4 cells; HF-P4, 1 uM, 1 µM
  Cell viability %: 114.0028% and 114.925%
HF-P4 cells; HF-P4, 2.5 uM, 2.5 µM
  Cell viability %: 106.4486% and 88.2524%
HF-P4 cells; HF-P4, 5 uM, 5 µM
  Cell viability %: 90.58% and 81.47%
HF-P4 cells; HF-P4, 7.5 uM, 7.5 µM
  Cell viability %: 87.03% and 78.05%
HF-P4 cells; HF-P4, 10 uM, 10 µM
  Cell viability %: 75.94% and 65.94%
HF-P4 cells; HF-P4, 15 uM, 15 µM
  Cell viability %: 59.86% and 63.15%
HF-P4 cells; HF-P4, 20 uM, 20 µM
  Cell viability %: 64.65% and 61.04%
HF-P4 cells
  IC50: > 20 µM
[1]; HF-P4, 100 nM
  viability at 48 h, 0.1 µM: 101%
[1]
  viability at 48 h, 0.5 µM: 106%
  viability at 48 h, 0.75 µM: 94%
  viability at 48 h, 1 µM: 105%
  viability at 48 h, 2.5 µM: 94.3%
  viability at 48 h, 5 µM: 80.7%
  viability at 48 h, 7.5 µM: 77.3%
  viability at 48 h, 10 µM: 70.5%
  viability at 48 h, 15 µM: 67.1%
  viability at 48 h, 20 µM: 64%

## Cc1ccc(-n2c(-c3ccc(C(=O)N/N=C/c4ccccc4O)cc3)cc3c2cc(-c2ccc(C(=O)N/N=C/c4ccccc4O)cc2)n3-c2ccc(C)cc2)cc1 [Compound 6]
H-1299 cells; [2]
  Cell viability %: 77.16% and 73.27%
H-1299 cells; [3]
  Cell viability %: 69.88% and 74.98%
H-1299 cells; [4]
  Cell viability %: 83.61% and 74.75%
H-1299 cells; H-1299, 1 uM, repeats, 1 µM
  Cell viability %: 86.38% and 69.89% and 61.2%
H-1299 cells; [5]
  Cell viability %: 77.45% and 63.25% and 56.68%
H-1299 cells; H-1299, 5 uM, repeats, 5 µM
  Cell viability %: 69.4% and 77.63% and 53.79%
H-1299 cells; [6]
  Cell viability %: 53.98% and 50.36%
H-1299 cells; H-1299, 10 uM, repeats, 10 µM
  Cell viability %: 52.11% and 46.79%
H-1299 cells; H-1299, 15 uM, repeats, 15 µM
  Cell viability %: 36.42% and 29.24%
H-1299 cells; H-1299, 20 uM, repeats, 20 µM
  Cell viability %: 33.42% and 31.6%
H-1299 cells; [7]
  viability at 0.1 µM: 74.6%
H-1299 cells; Homo sapiens, NCI-H1299, 48 h, H-1299, 500 nM, repeats, read-out: Cell viability %
  viability at 0.5 µM: 82%
H-1299 cells; Homo sapiens, NCI-H1299, 48 h, H-1299, 750 nM, repeats, read-out: Cell viability %
  viability at 0.75 µM: 90.2%
H-1299 cells; [8]
  viability at 7.5 µM: 63.7%
H-1299 cells; [9]
  viability at 10 µM: 54.8%
H-1299 cells; [10]
  viability at 15 µM: 38.7%
H-1299 cells; [11]
  viability at 20 µM: 34.4%
H-1299 cells; Homo sapiens
  IC50: 14.6 µM
Caov-3 cells; [12]
  Cell viability %: 90.2569% and 126.2705% and 118.7488%
Caov-3 cells; [13]
  Cell viability %: 89.11% and 125.1899% and 99.08%
Caov-3 cells; [14]
  Cell viability %: 65.96% and 78.5%
Caov-3 cells; Caov-3, 1 uM, repeats, 1 µM
  Cell viability %: 64.72% and 111.7508% and 115.9087%
Caov-3 cells; [15]
  Cell viability %: 67.86% and 93.922% and 75.11%
Caov-3 cells; Caov-3, 5 uM, repeats, 5 µM
  Cell viability %: 62.99% and 65.69% and 100.7653%
Caov-3 cells; [16]
  Cell viability %: 58% and 65.63% and 91.09%
Caov-3 cells; Caov-3, 10 uM, repeats, 10 µM
  Cell viability %: 52.62% and 73.89% and 61.74%
Caov-3 cells; Caov-3, 15 uM, repeats, 15 µM
  Cell viability %: 42.46% and 49.26%
Caov-3 cells; Caov-3, 20 uM, repeats, 20 µM
  Cell viability %: 17.34% and 16.88%
Caov-3 cells; [17]
  viability at 0.75 µM: 67%
Caov-3 cells; [18]
  viability at 15 µM: 36.3%
Caov-3 cells; [19]
  viability at 20 µM: 17.4%
Caov-3 cells; Homo sapiens
  IC50: 15.4 µM
HF-P4 cells; HF-P4, 100 nM, 0.1 µM
  Cell viability %: 114.4851% and 90.24% and 95.4%
HF-P4 cells; HF-P4, 500 nM, 0.5 µM
  Cell viability %: 95.79% and 101.8289%
HF-P4 cells; HF-P4, 750 nM, 0.75 µM
  Cell viability %: 92.17% and 90.68%
HF-P4 cells; HF-P4, 1 uM, 1 µM
  Cell viability %: 84.11% and 85.78%
HF-P4 cells; HF-P4, 2.5 uM, 2.5 µM
  Cell viability %: 75.58% and 74.71%
HF-P4 cells; HF-P4, 5 uM, 5 µM
  Cell viability %: 73.0472% and 65.6%
HF-P4 cells; HF-P4, 7.5 uM, 7.5 µM
  Cell viability %: 61.49% and 69.35%
HF-P4 cells; HF-P4, 10 uM, 10 µM
  Cell viability %: 61.41% and 64.7001%
HF-P4 cells; HF-P4, 15 uM, 15 µM
  Cell viability %: 54.9% and 58.15%
HF-P4 cells; HF-P4, 20 uM, 20 µM
  Cell viability %: 42.62% and 43.54%
HF-P4 cells
  IC50: 16.4 µM
[1]
  viability at 48 h, 0.5 µM: 103%
  viability at 48 h, 0.75 µM: 97.8%
  viability at 48 h, 1 µM: 84.4%
  viability at 48 h, 2.5 µM: 94.5%
  viability at 48 h, 5 µM: 84.3%
  viability at 48 h, 7.5 µM: 62.3%
  viability at 48 h, 10 µM: 66.1%
  viability at 48 h, 15 µM: 62.5%
  viability at 48 h, 20 µM: 48%
